# Measured values as given in patent US9968579B2, “ATRA for modulating Pin1 activity and stability” (Beth Israel Deaconess Medical Center, Inc., priority 2014, dated 2018).
# pKd: −log10 of the molar value.
# Experiments:
# Pin1 acetylation = Pin1 acetylation in cells (Flag IP, acetyl-lysine immunoblot); type: cell-based
# Source text: FIG. 1 depicts HTS results for glucose starvation induced Pin1 deacetylation in cells 100. In order to perform glucose starvation induced Pin1 deacetylation in cells, cells were transfected with Flag-Pin1 and subjected to various stresses, followed by Flag IP before with immunoblotting acetyl-lysine (AcK) or Flag antibody. Glu-, glucose starvation; HS, heat shock; UV, UV radiation. […] Overexpression of p300-HA increased Pin1 acetylation in cells. Various histone acetyl transferases were co-transfected with Flag-Pin1 into cells, followed by assaying acetylated Pin1. p300 inhibitors, Garcinol (Gar) and Anacardic acid (AnAc), reversed p300-increased Pin1 acetylation.
# To corroborate this notion, 2-deoxyglucose (2-DG), a glucose analog, was used to mimic glucose starvation (Wick et al., 1955). […] Protein acetylation may be catalytically modulated by a particular pair of histone acetyl transferase (HAT) and deacetylase (HDAC) (Yang and Seto, 2007). To identify the HAT and HDAC that modulates Pin1 acetylation, Flag-tagged Pin1 was expressed with several HATs including p300, CBP or GCN5 in cells, followed by coimmunoprecipitation (Co-IP) with anti-Flag antibody and immunoblotting with anti-acetyl lysine antibody.
# Pin1 PPIase domain = biological target: T1, Pin1 PPIase domain (Homo sapiens, UniProt Q13526); experiment: FP-HTS / FP assay, competition with pTide probe for Pin1 binding; settings: for interaction with Pin1 in FP assay: 0.5 h or 24 h incubation with Pin1; for Pin1 binding among retinoids tested: FIG. 4F
# T1 construct: Pin1 PPIase domain was used instead of its full-length protein
# Source text: A FP-HTS screening for small molecule compounds that may compete with pTide for binding to dephosphorylated and thus activated Pin1 was developed. Pin1 PPIase domain was used instead of its full-length protein to ensure the identification of compounds that selectively target the catalytic site of monomeric Pin1. The HTS probe pTide was conjugated with FITC or TAMRA and assay conditions optimized to ensure that the probe only binds to the catalytic active site with certain essential residues, such as K63 and R69 (PDB: 2Q5A).
# (§1) As observed in FIGS. 4B and 4C, 13cRA and its pairing compound ATRA include a carboxylic acid and a hydrophobic six-membered aromatic ring.
# To examine whether the carboxylic acid in ATRA serves as an alternative of phosphate group that binds to Pin1, several structurally similar retinoids with substituted carboxylic or aromatic groups, as well as the new generation of retinoid drugs including Fenretinide and Bexarotene were tested for Pin1 binding.
# Pin1 [1] = biological target: T2, Pin1 (Homo sapiens, UniProt Q13526); experiment: In vitro PPIase assay; settings: dose-dependent
# cyclin D1 promoter = experiment: Cyclin D1 promoter activation by Pin1; type: cell-based; settings: dose-dependent
# Source text: FIG. 6 illustrates study results 600 in which ATRA may have anticancer activity in other cancer types. Breast cancer was used as model due to the substantial oncogenic role of Pin1 in vitro and in vivo. The first step was to test whether ATRA may reverse the oncogenic phenotypes induced by Pin1 overexpression, including induction of centrosome amplification, activation of the cyclin D1 promoter, and enhancement of foci formation.
# [2] = test system: Pin1 and substrate oncogenes and tumor suppressors; experiment: Protein levels of Pin1 and its substrates in breast cell lines; type: cell-based, human
# Source text: (I, J) Either ATRA (I) or inducible Pin1 KD (J) shared the same ability to reduce protein levels of Pin1 and its substrate oncogenes including cyclin D1, HER2, ERα, Akt, NFkB/p65, c-Jun and PKM2 as well as to increase protein levels of Pin1 substrate tumor suppressors, Smad and SMRT, in breast cancer MDA-MB-231, SKBR3 and T47D cells, with ATRA having little effects on normal MCF10A cells. TNBC, triple negative breast cancer.
# To further support that ATRA targets Pin1 in breast cancer, it was examined whether ATRA would affect protein levels of a selected set of oncogenes and tumor suppressors, whose protein stability is shown to be regulated by Pin1 in breast cancer. […] To further support that these effects of ATRA are due to Pin1 degradation, it was stably introduced tetracycline-inducible Pin1 KD into these cells. Inducible Pin1 KO produced the same effects on the oncogenes and tumor suppressors, as did ATRA (FIG. 6J). Taken together, ATRA selectively ablated activated Pin1 to inhibit many cancer-driving pathways simultaneously.
# MDA-MB-231 cells = experiment: MDA-MB-231 xenograft in nude mice; type: in vivo, female nude mice; settings: intraperitoneally 3 times a week for 8 weeks
# Procedure: (A, B) ATRA inhibited tumor growth of MDA-MB-231 cells in mice. Female nude mice were flank-inoculated with 2×10^6 MDA-MB-231 cells and, 1 week later, implanted with 5 or 10 mg 21 day slow-releasing ATRA pellets. Tumor sizes were measured weekly and tumor tissues were collected from the mice after 7 weeks (A). Curves of tumor volume were plotted after calculation with formula of L×W^2×0.52 (B) (n=3).
# FIG. 7 illustrates study results 700 in which the slow-releasing ATRA inhibits human triple negative breast cancer tumor growth in mice. In the pilot experiments, female nude mice were subcutaneously injected with MDA-MB-231 cells into the flank, followed by administering ATRA or vehicle intraperitoneally 3 times a week for 8 weeks. […] This ATRA's modest anti-tumor activity could be due to its short half-life of less than 1 h in humans. Thus, slow-releasing ATRA pills to maintain its constant drug level in mice was used. Mice were again subcutaneously injected with MDA-MB-231 cells into the flank and implanted 1 week later with slow-releasing ATRA or placebo pills for 8 weeks. […] Tumor samples were then collected at the end and immunoblotted with antibodies against Pin1 and its target cyclin D1.
# [3] = test system: MDA-MB-231 cells expressing Q33K or E100D Pin1 mutant; experiment: Xenograft of MDA-MB-231 cells expressing Q33K or E100D Pin1 mutant; set-up: species or system nude mice; settings: mouse, in vivo
# Procedure: (H-J) ATRA inhibited tumor growth of MDA-MB-231 cells in mice, even after over-expression of monomeric Q33K or E100D Pin1 mutant. Nude mice were injected with 2×10^6 MDA-MB-231 cells and treated with ATRA pellets at indicated dosages. Tumors were harvested 7 weeks later. Quantitative curve of tumor volumes developed by Q33K (I) or E100D (J)-expressing MDA-MB-231 in the nude mice (n=3).
# It was examined whether ATRA is suitable for treating tumors driven by cancer-derived monomeric Pin1 mutants given that it induces degradation of monomeric Pin1. It is stably expressed WT, Q33K or E100D Flag-Pin1 in MDA-MB-231 cells, and then treated them with ATRA. […] Collectively, ATRA has potent anti-tumor activity against breast cancer driven by WT Pin1 or its cancer-derived monomeric mutants via ablating Pin1.
# [4] = test system: PML-RARα and Pin1 in NB4 cells; experiment: PML-RARα and Pin1 protein levels in NB4 cells; type: cell-based, human
# [5] = test system: APL cells isolated from hCG-PML-RARα transgenic mice
# NB4 cells = experiment: Cell growth of NB4 cells; type: cell-based, human; settings: combination with 1.5 μM ATRA; superior to high dose ATRA
# Source text: (K) Potentiated effects of ATRA with SIRT1 inhibitors, NAM or Splito, on cell growth of NB4.
# Next, in a consideration to test the role of activated Pin1 monomer in APL, the anti-proliferative effect of ATRA in the presence of the SIRT1 inhibitors, NAM or Splito, to deplete the monomeric Pin1 reservoir was examined.
# AU565 cells = experiment: ATRA sensitivity of AU565 cells in combination with SIRT1 inhibitors; type: cell-based, human; settings: ATRA-resistant AU565 cells
# Source text: Moreover, SIRT1 KD cells were more sensitive to growth inhibition, and Pin1 degradation induced by ATRA. These findings support the notion that ATRA selectively targets the activated Pin1 monomer.
# breast cancer cells = experiment: Effect of pan-RARs inhibitor/activator on ATRA-induced Pin1 degradation and growth inhibition; type: cell-based, human
# Source text: To examine whether the inhibitory effects of ATRA on breast cancer cell growth were related to RAR activation, Ro-415253 and AC-93253 were used. […] Thus, ATRA-mediated growth inhibition is likely via Pin1 degradation in breast cancer cells, as in APL cells.
# Pin1 S71E mutant = Pin1 S71E mutant (Homo sapiens, UniProt Q13526, S71E); experiment: Binding to phosphorylation-mimicking Pin1 S71E mutant
# Source text: as §1
# The levels of S71 phosphorylation in different cell lines were tightly correlated with ATRA's sensitivity. […] It has been previously shown that phosphorylation on S71 forms salt bridges with K63 and R69, which are the same two residues that coordinated for the binding to the carboxylic acid group of ATRA (FIG. 6H). Thus S71 phosphorylation by DAPK1 may regulate ATRA's sensitivity of cancer cells.
# Pin1 [6] = biological target: T2, Pin1; settings: read-out: Kd (affinity for Pin1); cited from earlier work
# cells = settings: cited from earlier work
compound,measurement,setting,value
"O=CC[C@@H](O)[C@H](O)[C@H](O)CO [2-DG, 2-deoxyglucose]",Pin1 acetylation,Pin1 acetylation; mimic of glucose starvation,reduction in Pin1 acetylation in a time- or dose-dependent manner
"CC1=C(/C=C/C(C)=C/C=C/C(C)=C\C(=O)O)C(C)(C)CCC1 [13cRA, 13-cis-retinoic acid]",interaction with Pin1 in FP assay,Pin1 PPIase domain,interacted with Pin1 in a dose-dependent manner
same,rank as Pin1 inhibitor hit by Z score in FP-HTS,Pin1 PPIase domain; 8200 compound chemical libraries,No. 1 hit
same,inhibition of Pin1 PPIase activity,Pin1 [1],completely inhibited
"CC1=C(/C=C/C(C)=C/C=C/C(C)=C/C(=O)O)C(C)(C)CCC1 [ATRA, all-trans-retinoic acid]",interaction with Pin1 in FP assay,Pin1 PPIase domain,interacted with Pin1 in a dose-dependent manner
same,Pin1 binding among retinoids tested,Pin1 PPIase domain,most potent
same,"Pin1 binding potency, ATRA versus 13cRA",Pin1 PPIase domain; after 0.5 h Pin1 incubation,more potent than 13cRA
same,"Pin1 binding potency, ATRA versus 13cRA",Pin1 PPIase domain; after 24 h Pin1 incubation,the same potency
same,inhibition of Pin1 activation of the cyclin D1 promoter,cyclin D1 promoter,fully inhibited
same,"protein levels of Pin1 and oncogenic substrates (cyclin D1, HER2, ERα, Akt, NFkB/p65, c-Jun, PKM2)","[2]; T47D, SKBR3 or MDA-MB-231",dose-dependent protein reduction
same,protein levels of tumor suppressor substrates Smad2/3 or SMRT,"[2]; T47D, SKBR3 or MDA-MB-231",protein induction
same,"changes in Pin1, oncogenes or tumor suppressors",[2]; normal MCF10A cells,no appreciable changes
same,tumor size,MDA-MB-231 cells,slightly smaller tumors than control mice
same,Pin1 mutants and cyclin D1 in tumors,[3],dose-dependently reduced both Q33K and E100D Pin1 mutants and cyclin D1 in tumors
same,inhibition of Q33K or E100D Pin1 mutant-promoted xenograft tumor growth,[3],dose-dependently and effectively inhibited
CCCCCCCCCCCCCCCc1cccc(O)c1C(=O)O [Anacardic acid],effect on p300-increased Pin1 acetylation,Pin1 acetylation; p300 over-expressed,reversed
C=C(c1ccc(C(=O)O)cc1)c1cc2c(cc1C)C(C)(C)CCC2(C)C [Bexarotene],Pin1 binding among retinoids tested,Pin1 PPIase domain,only marginal Pin1 interaction
O=C(O[C@@H]1Cc2c(O)cc(O)cc2O[C@@H]1c1cc(O)c(O)c(O)c1)c1cc(O)c(O)c(O)c1 [EGCG],PML-RARα degradation,[4],induced PML-RARα degradation in a dose-dependent manner
same,Pin1 degradation,[4],inhibited Pin1 without degrading it
same,PML-RARα in the bone marrow,[5]; after 20 days,dramatically reduced
same,condition of treated mice,"[5]; mouse, in vivo",rather sick
same,potency in reducing PML-RARα and spleen size compared with ATRA,"[5]; mouse, in vivo",less potent
same,spleen weights,[5]; versus enlarged spleens in placebo group,remained nearly at basal levels
CC1=C(/C=C/C(C)=C/C=C/C(C)=C/C(=O)Nc2ccc(O)cc2)C(C)(C)CCC1 [Fenretinide],Pin1 binding among retinoids tested,Pin1 PPIase domain,only marginal Pin1 interaction
NC(=O)c1cccnc1 [NAM],effect on anticancer effects of low dose ATRA,NB4 cells,greatly potentiated
same,increase of ATRA sensitivity,AU565 cells,2 orders of magnitude
CCOC(=O)CN1C(=O)c2ccc3c4c(ccc(c24)C1=O)C(=O)N(CC(=O)OCC)C3=O [PiB],PML-RARα degradation,[4],induced PML-RARα degradation in a dose-dependent manner
same,Pin1 degradation,[4],inhibited Pin1 without degrading it
CCCCCCCOc1cc2c(cc1/C(C)=C/c1ccc(C(=O)O)cc1)C(C)(C)CCS2(=O)=O [Ro-415253],effect on Pin1 degradation or cell growth inhibition induced by ATRA,breast cancer cells,neither the pan-RARs inhibitor nor the pan-RARs activator had any obvious effects
O=C1CCc2c(ccc3ccccc23)O1 [Splito],effect on anticancer effects of low dose ATRA,NB4 cells,greatly potentiated
same,effect on ATRA sensitivity,AU565 cells,increase ATRA sensitivity
CC1=C(/C=C/C(C)=C/C=C/C(C)=C/C=O)C(C)(C)CCC1 [retinal],Pin1 binding among retinoids tested,Pin1 PPIase domain,completely inactive
CC1=C(/C=C/C(C)=C/C=C/C(C)=C/CO)C(C)(C)CCC1 [retinol],Pin1 binding among retinoids tested,Pin1 PPIase domain,completely inactive
CC(=O)OC/C=C(C)/C=C/C=C(C)/C=C/C1=C(C)CCCC1(C)C [retinyl acetate],Pin1 binding among retinoids tested,Pin1 PPIase domain,completely inactive
O=C(O)c1ccccc1O [salicylic acid],interaction with Pin1 in FP assay,Pin1 PPIase domain,negative control
Bth-d-phos.Thr-Pip-Nal [pTide],binding to Pin1 S71E mutant,Pin1 S71E mutant,unable to bind
same,pKd,Pin1 [6],8.92
same,ability to enter cells,cells,cannot enter cells
